Laboratory results as given in ChEMBL document CHEMBL5215010, “Dothideomins A-D, Antibacterial Polycyclic Bisanthraquinones from the Endophytic Fungus Dothideomycetes sp. BMC-101” (2022).
Values after ≈ are worked out from the molar mass of the structure shown.

Tests used:
Type in all cases: functional
Mycolicibacterium phlei = experiment: Antibacterial activity against Mycobacterium phlei assessed as bacterial growth inhibition by CLSI protocol based broth microdilution assay
Bacillus subtilis = experiment: Antibacterial activity against Bacillus subtilis assessed as bacterial growth inhibition by CLSI protocol based broth microdilution assay
[1] = system: Staphylococcus epidermidis; experiment: Antibacterial activity against Staphylococcus epidermidis assessed as bacterial growth inhibition by CLSI protocol based broth microdilution assay
Staphylococcus aureus = experiment: Antibacterial activity against Staphylococcus aureus assessed as bacterial growth inhibition by CLSI protocol based broth microdilution assay

Row | Compound | MIC (Mycolicibacterium phlei) [µg/mL] | MIC (Bacillus subtilis) [µg/mL] | MIC [1] [µg/mL] | MIC (Staphylococcus aureus) [µg/mL]
1 | Cc1cc(O)c2c(c1)C(=O)[C@]13C[C@H](O)C4C1[C@@H](O)[C@H](C(O)=C3C2=O)[C@@]12O[C@@]41C(=O)c1cc(C)cc(O)c1[C@H]2O (stereo not given in full) | 6.5 (≈ 12.2 µM) | 6.5 (≈ 12.2 µM) | 3.3 (≈ 6.2 µM) | 6.5 (≈ 12.2 µM)
2 | Cc1cc(O)c2c(c1)C(=O)[C@]13C[C@H](O)C4C1[C@@H](O)[C@H](C(O)=C3C2=O)[C@@]12O[C@@]41C(=O)c1cc(C)cc(O)c1C2=O (stereo not given in full) | 0.8 (≈ 1.51 µM) | 0.4 (≈ 0.754 µM) | 0.4 (≈ 0.754 µM) | 0.4 (≈ 0.754 µM)
3 | O=C(N[C@H](CO)[C@H](O)c1ccc([N+](=O)[O-])cc1)C(Cl)Cl [CHLORAMPHENICOL] | 1.3 (≈ 4.02 µM) | 0.8 (≈ 2.48 µM) | 1.5 (≈ 4.64 µM) | 0.3 (≈ 0.928 µM)

Results, then the molecule that gave them:

Row | MIC (Mycolicibacterium phlei) [µg/mL] | MIC (Bacillus subtilis) [µg/mL] | MIC [1] [µg/mL] | MIC (Staphylococcus aureus) [µg/mL] | Compound
4 | 1.6 (≈ 3.11 µM) | 1.6 (≈ 3.11 µM) | 1.6 (≈ 3.11 µM) | 1.6 (≈ 3.11 µM) | Cc1cc(O)c2c(c1)C(=O)C1=C(C2=O)[C@H]2C(O)=C3C(=O)c4c(O)cc(C)cc4C(=O)[C@@]34C[C@H](O)C1C4[C@H]2O (stereo not given in full)
5 | 0.4 (≈ 0.781 µM) | 0.4 (≈ 0.781 µM) | 0.4 (≈ 0.781 µM) | 0.4 (≈ 0.781 µM) | Cc1cc(O)c2c(c1)C(=O)C1=C(C2=O)[C@H]2C(O)=C3C(=O)c4c(O)cc(C)cc4C(=O)[C@@]34CC(=O)C1C4[C@H]2O (stereo not given in full)
